In this assay the target is Human recombinant DHX9 protein (Homo sapiens (Human), UniProt Q08211). Put plainly: DHX9 ATPase assay (ADP-Glo). Type of assay: biochemical. Particulars: for IC50: read-out: DHX9 Biochemical Inflection Point. A general note: ADP-Glo turns the ADP formed in a reaction into a luminescent signal.
Human recombinant DHX9 protein, sequence (Q08211 whole entry): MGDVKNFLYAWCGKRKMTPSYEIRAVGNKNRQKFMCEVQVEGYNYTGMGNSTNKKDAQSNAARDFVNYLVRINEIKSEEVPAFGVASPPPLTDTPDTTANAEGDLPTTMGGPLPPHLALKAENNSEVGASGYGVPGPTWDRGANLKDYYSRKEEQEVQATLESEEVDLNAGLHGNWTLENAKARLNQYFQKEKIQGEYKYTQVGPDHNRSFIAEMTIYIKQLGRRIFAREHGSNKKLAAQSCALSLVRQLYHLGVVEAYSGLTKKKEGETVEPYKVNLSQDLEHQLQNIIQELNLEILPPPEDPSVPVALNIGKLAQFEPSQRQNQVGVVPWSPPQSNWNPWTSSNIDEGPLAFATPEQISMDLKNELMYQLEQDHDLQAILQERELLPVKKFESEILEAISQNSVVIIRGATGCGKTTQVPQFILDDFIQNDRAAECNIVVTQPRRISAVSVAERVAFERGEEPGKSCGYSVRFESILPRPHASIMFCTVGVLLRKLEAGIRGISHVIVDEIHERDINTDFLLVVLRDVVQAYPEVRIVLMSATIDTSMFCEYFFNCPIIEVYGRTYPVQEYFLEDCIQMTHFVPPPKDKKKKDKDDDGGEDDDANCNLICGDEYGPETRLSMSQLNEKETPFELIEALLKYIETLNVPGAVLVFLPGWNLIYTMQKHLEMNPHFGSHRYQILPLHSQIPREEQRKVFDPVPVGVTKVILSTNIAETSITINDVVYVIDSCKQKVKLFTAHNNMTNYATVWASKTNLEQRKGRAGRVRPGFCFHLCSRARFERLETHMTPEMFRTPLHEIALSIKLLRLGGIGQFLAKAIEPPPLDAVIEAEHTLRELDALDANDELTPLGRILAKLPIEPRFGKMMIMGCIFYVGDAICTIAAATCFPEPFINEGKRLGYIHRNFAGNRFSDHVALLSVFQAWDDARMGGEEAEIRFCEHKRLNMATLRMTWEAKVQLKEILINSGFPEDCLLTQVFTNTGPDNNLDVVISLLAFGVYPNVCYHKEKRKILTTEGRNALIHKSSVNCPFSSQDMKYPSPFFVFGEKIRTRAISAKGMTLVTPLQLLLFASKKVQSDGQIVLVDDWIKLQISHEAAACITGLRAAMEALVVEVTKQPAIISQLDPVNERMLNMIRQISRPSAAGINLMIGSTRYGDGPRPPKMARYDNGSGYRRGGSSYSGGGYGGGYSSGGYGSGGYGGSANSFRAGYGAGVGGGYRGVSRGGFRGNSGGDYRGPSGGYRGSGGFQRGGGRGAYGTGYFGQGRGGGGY

For `Cc1cc(C(=O)Nc2cc(Cl)cc(NS(C)(=O)=O)c2)cn1-c1ncc(N2CCC(F)(F)C2)cn1` [Example 409], the “DHX9 Biochemical Max Inhibition” value stood at 65.7 and the IC50 worked out at 29.7 nM.

Consider `Cc1cc(C(=O)Nc2cc(Cl)cc(NS(C)(=O)=O)c2)cn1-c1ccc(N2CCCC2=O)cn1` [Example 410], for which the “DHX9 Biochemical Max Inhibition” value was found to be 69.3 and the IC50 came out at 20.5 nM.

For the compound `Cc1cc(C(=O)Nc2cc(Cl)cc(NS(C)(=O)=O)c2)cn1-c1ccc(N2CC3CC3C2)cn1` (stereo not shown) [Example 411], the “DHX9 Biochemical Max Inhibition” value amounted to 74.2 and the IC50 stood at 41.6 nM.

As to `Cc1cc(C(=O)Nc2cc(Cl)cc(NS(C)(=O)=O)c2)cn1-c1ncc(N2CCOCC2)cc1F` [Example 412], the “DHX9 Biochemical Max Inhibition” value worked out at 72.2 and the IC50 was 10.5 nM.

Take `Cc1cc(C(=O)Nc2cc(Cl)cc(NS(C)(=O)=O)c2)cn1-c1ncc(N2CC3(C2)CC(F)(F)C3)cn1` [Example 413]: the “DHX9 Biochemical Max Inhibition” value was 64.5 and the IC50 is 13.3 nM.

Consider `Cc1cc(C(=O)Nc2cc(Cl)cc(NS(C)(=O)=O)c2)cn1-c1ncc(N2CCC3(C2)CC3(F)F)cc1F` (stereo not shown) [Example 414], for which the “DHX9 Biochemical Max Inhibition” value is recorded as 58.3 and the IC50 was 50.6 nM.

For the compound `Cc1cc(C(=O)Nc2cc(Cl)cc(NS(C)(=O)=O)c2)cn1-c1ncc(N2CC(F)(F)C2)cc1C#N` [Example 415], the “DHX9 Biochemical Max Inhibition” value was 99.9 and the IC50 is 15.4 nM.

As for `Cc1cc(C(=O)Nc2cc(Cl)cc(NS(C)(=O)=O)c2)cn1-c1ccc(N2CCOC2=O)cn1` [Example 416], the “DHX9 Biochemical Max Inhibition” value is 81.8 and the IC50 came to 13.5 nM.

Regarding `Cc1cc(C(=O)Nc2cc(Cl)cc(NS(C)(=O)=O)c2)cn1-c1ncc(N2CCOC2=O)cn1` [Example 417], the “DHX9 Biochemical Max Inhibition” value is on record as 70.1 and the IC50 turned out to be 33.1 nM.

Regarding `Cc1cc(C(=O)Nc2cc(Cl)cc(NS(C)(=O)=O)c2)cn1-c1ncc(N2CC(F)(F)C2)cn1` [Example 418], the “DHX9 Biochemical Max Inhibition” value amounted to 70.25 and the IC50 came out at 17 nM.

Take `Cc1cc(N2CC(F)(F)C2)cnc1-n1cc(C(=O)Nc2cc(Cl)cc(NS(C)(=O)=O)c2)cc1C` [Example 419]: the “DHX9 Biochemical Max Inhibition” value stood at 78.6 and the IC50 is 18.6 nM.

For the compound `Cc1cc(C(=O)Nc2cc(Cl)cc(NS(C)(=O)=O)c2)cn1-c1ncc(N2CC(F)(F)C2)cc1F` [Example 420], the “DHX9 Biochemical Max Inhibition” value is reported as 95 and the IC50 was 17.7 nM.

`COc1cc(N2CC(F)(F)C2)cnc1-n1cc(C(=O)Nc2cc(Cl)cc(NS(C)(=O)=O)c2)cc1C` [Example 421]: the “DHX9 Biochemical Max Inhibition” value turned out to be 81.6 and the IC50 came to 10.8 nM.

With `CCS(=O)(=O)Nc1cc(Cl)cc(NC(=O)c2cc(C)n(-c3ncc(N4CC(F)(F)C4)cn3)c2)c1` [Example 423], the “DHX9 Biochemical Max Inhibition” value came to 74.2 and the IC50 worked out at 21.6 nM.

`CS(=O)(=O)Nc1cc(Cl)cc(NC(=O)c2cnn(C3CCCC3OCc3ccccc3)c2)c1` (stereo not shown) [Example 424]: the “DHX9 Biochemical Max Inhibition” value was 81.7 and the IC50 is 5.1 nM.

Take `Cc1cc(C(=O)Nc2cc(Cl)cc(NS(C)(=O)=O)c2)cn1-c1ccc(C#N)cn1` [Example 425]: the “DHX9 Biochemical Max Inhibition” value came to 90 and the IC50 was 55.5 nM.

On to `Cc1cc(C(=O)Nc2cc(Cl)cc(NS(C)(=O)=O)c2)cn1-c1ncc(C(F)(F)F)cn1` [Example 426], for which the “DHX9 Biochemical Max Inhibition” value stood at 74.7 and the IC50 is 58.5 nM.

`CS(=O)(=O)Nc1cc(Cl)cc(NC(=O)c2cnn(-c3ncccc3Oc3cccc(F)c3)c2)c1` [Example 427]: the “DHX9 Biochemical Max Inhibition” value came out at 58.4 and the IC50 amounted to 122 nM.

With `CS(=O)(=O)Nc1cc(Cl)cc(NC(=O)c2cnn(-c3ccccc3COc3cncc(F)c3)c2)c1` [Example 428], the “DHX9 Biochemical Max Inhibition” value amounted to 68.9 and the IC50 was 70.8 nM.

Take `CN1CCN(c2csc(C(=O)Nc3cc(Cl)cc(NS(C)(=O)=O)c3)c2)C1=O` [Example 431]: the “DHX9 Biochemical Max Inhibition” value turned out to be 73.5 and the IC50 was 8.6 nM.

`CN1C(=O)N(c2csc(C(=O)Nc3cc(Cl)cc(NS(C)(=O)=O)c3)c2)C(=O)C1(C)C` [Example 432]: the “DHX9 Biochemical Max Inhibition” value stood at 75.4 and the IC50 was determined as 12.1 nM.

As to `CS(=O)(=O)Nc1cc(Cl)cc(NC(=O)c2cc(N3CCOC3=O)cs2)c1` [Example 433], the “DHX9 Biochemical Max Inhibition” value amounted to 71.2 and the IC50 stood at 24.1 nM.

In the case of `Cc1sc(C(=O)Nc2cc(Cl)cc(NS(C)(=O)=O)c2)cc1N1CCCC1=O` [Example 434], the “DHX9 Biochemical Max Inhibition” value is reported as 67.1 and the IC50 turned out to be 51.1 nM.

For the compound `COc1cnn(-c2csc(C(=O)Nc3cc(Cl)cc(NS(C)(=O)=O)c3)c2)c1` [Example 435], the “DHX9 Biochemical Max Inhibition” value amounted to 79.1 and the IC50 is 8.7 nM.

As for `COc1cnn(-c2cc(C(=O)Nc3cc(Cl)cc(NS(C)(=O)=O)c3)sc2C)c1` [Example 436], the “DHX9 Biochemical Max Inhibition” value came out at 81.4 and the IC50 stood at 15.7 nM.

Take `CCOc1ccc(-n2cc(C(=O)Nc3cc(Cl)cc(NS(C)(=O)=O)c3)cc2C)nc1` [Example 437]: the “DHX9 Biochemical Max Inhibition” value worked out at 84.2 and the IC50 worked out at 15.5 nM.

Take `CCOc1cnn(-c2cc(C(=O)Nc3cc(Cl)cc(NS(C)(=O)=O)c3)sc2C)c1` [Example 438]: the “DHX9 Biochemical Max Inhibition” value was 66.9 and the IC50 amounted to 5.8 nM.

Take `Cc1sc(C(=O)Nc2cc(Cl)cc(NS(C)(=O)=O)c2)cc1-n1cc(F)cn1` [Example 439]: the “DHX9 Biochemical Max Inhibition” value was determined as 61.5 and the IC50 amounted to 18.7 nM.

Take `CS(=O)(=O)Nc1cc(Cl)cc(NC(=O)c2cc(-n3cc(F)cn3)cs2)c1` [Example 440]: the “DHX9 Biochemical Max Inhibition” value was found to be 68.5 and the IC50 was 37.6 nM.

For the compound `COc1cnc(-n2cc(C(=O)Nc3cc(Cl)cc(NS(C)(=O)=O)c3)cc2C)nc1` [Example 441], the “DHX9 Biochemical Max Inhibition” value was determined as 72.6 and the IC50 turned out to be 26.5 nM.

In the case of `COCCOc1ccc(-n2cc(C(=O)Nc3cc(Cl)cc(NS(C)(=O)=O)c3)cc2C)nc1` [Example 442], the “DHX9 Biochemical Max Inhibition” value was found to be 72.7 and the IC50 stood at 9.3 nM.

For `Cc1cc(C(=O)Nc2cc(Cl)cc(NS(C)(=O)=O)c2)cn1-c1ccc(C(F)(F)F)cn1` [Example 443], the “DHX9 Biochemical Max Inhibition” value stood at 76.6 and the IC50 stood at 59 nM.

For the compound `Cc1cc(C(=O)Nc2cc(Cl)cc(NS(C)(=O)=O)c2)cn1-c1ncc(F)cc1F` [Example 444], the “DHX9 Biochemical Max Inhibition” value was 72.9 and the IC50 worked out at 39.1 nM.

On to `CCS(=O)(=O)Nc1cc(Cl)cc(NC(=O)c2cc(C)n(-c3ncc(F)cc3F)c2)c1` [Example 445], for which the “DHX9 Biochemical Max Inhibition” value is listed as 70.5 and the IC50 came out at 80.8 nM.

`CCS(=O)(=O)Nc1cc(Cl)cc(NC(=O)c2cc(C)n(-c3ncc(F)cc3Cl)c2)c1` [Example 446]: the “DHX9 Biochemical Max Inhibition” value was 64.1 and the IC50 came out at 115 nM.

In the case of `COCc1ccc(-n2cc(C(=O)Nc3cc(Cl)cc(NS(C)(=O)=O)c3)cc2C)nc1` [Example 447], the “DHX9 Biochemical Max Inhibition” value was determined as 74.9 and the IC50 was determined as 9 nM.

Take `CS(=O)(=O)Nc1cc(Cl)cc(NC(=O)c2cc(-c3ncc(F)cn3)c(C3CC3)s2)c1` [Example 448]: the “DHX9 Biochemical Max Inhibition” value came to 66.7 and the IC50 was found to be 1750 nM.

In the case of `CCS(=O)(=O)Nc1cc(Cl)cc(NC(=O)c2cc(-c3ncc(F)cn3)c(C3CC3)s2)c1` [Example 449], the “DHX9 Biochemical Max Inhibition” value came to 69.5 and the IC50 was 336 nM.

As for `CS(=O)(=O)Nc1cc(Cl)cc(NC(=O)c2cc(-c3ncc(F)cn3)c(Cl)s2)c1` [Example 450], the “DHX9 Biochemical Max Inhibition” value came to 62.8 and the IC50 is 79.1 nM.

On to `CS(=O)(=O)Nc1cc(Cl)cc(NC(=O)c2cc(C3CC3)n(-c3ncc(F)cn3)c2)c1` [Example 451], for which the “DHX9 Biochemical Max Inhibition” value is listed as 73.2 and the IC50 amounted to 54.3 nM.

As for `Cc1sc(C(=O)Nc2cc(Cl)cc(NS(C)(=O)=O)c2)cc1-c1ncc(OC2CCC2)cn1` [Example 452], the “DHX9 Biochemical Max Inhibition” value worked out at 80.5 and the IC50 came to 32.9 nM.

As to `CCOc1cnc(-c2cc(C(=O)Nc3cc(Cl)cc(NS(C)(=O)=O)c3)cn2C)c(F)c1` [Example 453], the “DHX9 Biochemical Max Inhibition” value was 90.7 and the IC50 came to 12.2 nM.

On to `COc1cnc(-c2cc(C(=O)Nc3cc(Cl)cc(NS(C)(=O)=O)c3)cn2C)c(F)c1` [Example 454], for which the “DHX9 Biochemical Max Inhibition” value turned out to be 82.9 and the IC50 is 5 nM.

`CCOc1cnc(-c2cc(C(=O)Nc3cc(Cl)cc(NS(C)(=O)=O)c3)sc2C)c(F)c1` [Example 456]: the “DHX9 Biochemical Max Inhibition” value is given as 61.5 and the IC50 worked out at 16.2 nM.

`CC(C)Oc1cnc(-c2csc(C(=O)Nc3cc(Cl)cc(NS(C)(=O)=O)c3)c2)nc1` [Example 457]: the “DHX9 Biochemical Max Inhibition” value worked out at 58.7 and the IC50 came to 20.2 nM.

In the case of `CC(C)Oc1cnc(-c2csc(C(=O)Nc3cc(Cl)cc(NS(C)(=O)=O)c3)c2)c(F)c1` [Example 458], the “DHX9 Biochemical Max Inhibition” value was 60.2.

In the case of `CC(C)Oc1ccc(-c2csc(C(=O)Nc3cc(Cl)cc(NS(C)(=O)=O)c3)c2)nc1` [Example 459], the “DHX9 Biochemical Max Inhibition” value is on record as 65.7.

Turning to `Cc1cc(N2CC(F)(F)C2)cnc1-c1cc(C(=O)Nc2cc(Cl)cc(NS(C)(=O)=O)c2)cn1C` [Example 461], the “DHX9 Biochemical Max Inhibition” value turned out to be 46.1 and the IC50 came to 53.9 nM.

With `COc1cc(N2CC(F)(F)C2)cnc1-c1cc(C(=O)Nc2cc(Cl)cc(NS(C)(=O)=O)c2)cn1C` [Example 462], the “DHX9 Biochemical Max Inhibition” value was found to be 82.4 and the IC50 came to 9.1 nM.

Regarding `CCS(=O)(=O)Nc1cc(Cl)cc(NC(=O)c2cc(-c3ncc(N4CC(F)(F)C4)cn3)c(C)s2)c1` [Example 463], the “DHX9 Biochemical Max Inhibition” value was found to be 77.1 and the IC50 came to 8.5 nM.

Regarding `COC(=O)N1CCN(c2cnc(-c3cc(C(=O)Nc4cc(Cl)cc(NS(C)(=O)=O)c4)cn3C)c(F)c2)CC1` [Example 464], the “DHX9 Biochemical Max Inhibition” value was 74.8 and the IC50 stood at 5.7 nM.

The values are drawn from patent US20240316047A1, “INHIBITORS OF RNA HELICASE DHX9 AND USES THEREOF” (ACCENT THERAPEUTICS, INC., priority 2022, published 2024).
